The record followed here is patent US12661405B2, “Protected HDAC (histone deacetylase) inhibitors” (LIGHTOX LIMITED, priority 2021, dated 2026).

pIC50: −log10 of the molar value. Read-outs that look alike come from different tables or passages of the source.

The test system of one assay is HaCaT keratinocytes. The assay can be described thus: Fluorescein diacetate cellular viability assay. It is filed as cell-based. The settings on record: Homo sapiens, light or radiation study, read after 24 h. Here is the method: A fluorescein diacetate cellular viability assay measuring the viability of HaCaT keratinocytes in response to treatment with compound 92 without irradiation (no light) and when irradiated (Light) was carried out as follows:
HaCaT keratinocyte cells were seeded in two 96 well plates and incubated for 24 h at 37° C. 5% CO2. The incubating media was removed and compound 92 was added at a range of concentrations, along with a dimethyl sulfoxide (DMSO) control, before the cells were incubated for one hour at 37° C. 5% CO2, whereupon one plate was irradiated at 405 nm for 5 min (72 mW/cm^2). Both plates were then incubated at 37° C. 5% CO2 for 24 h. The media was removed, and cells were washed with 1× phosphate buffered saline (PBS), then fluorescein diacetate (FDA) was added, and the cells were incubated at RT, in the dark, for 10 min. The fluorescein diacetate stain was then removed, and cells were washed with 1× phosphate buffered saline. The plates were read at 485/520 nm to determine cell viability at differing treatment concentrations of compound 92 with and without light exposure.

The subject of another assay is HDAC enzymes. Description: Immunofluorescence imaging with anti-acetyl-H3 primary antibody (acetylated H3 histones). The settings on record: HaCaT keratinocytes, compound at 5 μM. It is filed as cell-based. As for the experimental part:
HaCaT or SCC-4 cells were seeded at 50,000 cells per well in sterile coverslip containing 6-well plates. The next day, cells were treated with the compound of interest for 30 minutes before “Light” treated cells were irradiated. The following day, cells were then fixed using 4% PFA, permeabilised using Triton X-100/Tween 20, blocked in BSA/goat serum (dependent on the antibodies) and stained with primary then secondary antibodies before coverslips were mounted on slides and imaged on a Zeiss LSCM 880.
Immunofluorescence imaging of HaCaT keratinocytes treated with compound 92 (5 μM) and ethanol (EtOH), and co-treated with an anti-acetyl-H3 primary antibody that detects the presence of acetylated H3 histones was carried out as follows:
[…] Cells were washed in phosphate buffered saline then fixed in 4% PFA. Cells were washed again with phosphate buffered saline before blocking and permeabilization with 0.3% triton 100-X/5% goat serum in phosphate buffered saline for 60 min. Cells were then washed with phosphate buffered saline and anti-acetyl-histone 3 antibody was added and incubated overnight at 4° C. Second antibody (Alexa-594 anti-rabbit) was added for 45 min before cells were washed again and mounted for imaging.
This delayed behaviour is indicative of an initial lag phase as compound 92 is enzymatically metabolised to the active form.

As for `COC(=O)/C=C/c1ccc(C#Cc2cnc(N3CCN(C(=O)CCCCCCC(=O)NOC(C)=O)CC3)s2)cn1` [compound 92, Methyl (2E)-3-(5-{2-[2-(4-{7-[(acetyloxy)carbamoyl]heptanoyl}piperazin-1-yl)-1,3-thiazol-5-yl]ethynyl}pyridin-2-yl)prop-2-enoate], the pIC50 in the assay on HaCaT keratinocytes (1 h treatment, irradiated at 405 nm for 5 min (72 mW/cm^2), read-out: IC50 cell viability, light activation) was 6.16; in the assay with HaCaT keratinocytes (no irradiation, read-out: IC50 cell viability, without light activation), 5.26. Besides, in the assay with HDAC enzymes (one hour), the “Acetylated H3 build-up (nuclear ring phenotype) after one hour” value is “characteristic nuclear ring phenotype”. In addition, the “Acetylated H3 build-up (nuclear ring phenotype) after ten minutes” value in the assay with HDAC enzymes (ten minutes) is “limited activity”.
